Where two headings read alike, the source gives them in different places.

The subject of assay [1] is P. falciparum strains. More on the design: key: R = Clinically Resistant; S + Sensitive. Conditions: cited from earlier work.
Assay [2] deals with Plasmodium falciparum 3D7. As to the kind of experiment: P. falciparum SYBR green flow cytometry assay. The class given is cell-based. Conditions: 72 hours, read-out: EC50, proliferation of Plasmodium falciparum 3D7. The method, then:
Plasmodium falciparum: Parasites were cultured in 96-well plates at 0.5% initial parasitemia. Parasites were cultured for 72 hours in the presence of dilutions of tartrolon D2, dihydroartemisinin (DHA, a drug for treating malaria as a positive control) or DMSO after which parasites were stained with SYBR green fluorescence and enumerated by flow cytometry. The assay was conducted once and all samples were run in triplicate. Data was analyzed with GraphPad Prism as described for T. gondii.
For orientation: In flow cytometry, cells or beads pass a laser one at a time.

Assay [3] relates to P. falciparum strains. The experiment in a line: 3H hypoxanthine incorporation assay of P. falciparum strains in human red blood cells. The class given is cell-based, Plasmodium falciparum. The method, then: The potency of the compounds of the invention against multi-drug resistant P. falciparum strains was tested. Parasites were cultured in 96-well plates in human red blood cells at 0.5% initial parasitemia for 72 hours in the presence of dilutions of tartrolon D/E (specifically, D2 as the starting material in FIG. 11A), purified tartrolon E (FIG. 11C), dihydroartemisinin (DHA, as a positive control in FIG. 11B), or DMSO (as a negative control). Parasites proliferation was then determined by ^3H hypoxanthine incorporation.
Specifically, parasitized red blood cells (pRBCs) were grown in 0.5% Albumax I (Thermo Fisher Scientific). Assays were set up in 96-well plates at 0.5% initial parasitemia and 0.5% hematocrit. Parasites were exposed to various concentrations of Tartrolon D or E and dihydroartemisinin (DHA) for 48 hours and then pulsed with 0.5 microcuries of tritium-labeled hypoxanthine Moravek (MT-700) for another 24 hours. At the end of 72 hours, assay plates were processed through an Inotech cell harvester and collected on Inotech glass fiber filters. Filters were transferred to Omniplate-96 cassettes (Perkin Elmer) and dried overnight at room temperature. About […] of Microscint-O scintillation cocktail (Perkin Elmer) was added to each well. Each well was counted for 2 minutes on a Packard Topcount scintillation counter. The uptake of radiolabeled hypoxanthine by compound-treated pRBCs was compared relative to uptake by DMSO solvent-treated controls. […] The starting material used as the active reagent in FIG. 11C was tartrolon E, purified as follows: extract from the bacterial pellet of the Teredinibacter turnerae T7901 was purified by reversed phase HPLC using diode array detection. A C18 column (Phenomenex CHO-7878, 100×10 mm) was employed with an isocratic mobile phase (85% acetontrile in water, 3.5 mL/min) to yield tartrolon E (4.7 mg, retention time 8 min).

Another assay deals with Babesia bovis. The experiment in a line: SYBR green-based growth suppression assay in bovine red blood cells. The class given is cell-based. Conditions: SYBR green fluorescence; listed as tartrolon D2/E; read-out: EC50 against B. bovis. The procedure:
Purified tartrolon D/E (with starting materials being either D1 or D2) was tested against another apicomplexan pathogen, Babesia bovis, which proliferates in bovine red blood cells. Growth suppression of B. bovis was quantified using a modified SybrGreen-based assay (Molecular Probes, Life Sciences Technology). SYBR green is an asymmetrical cyanine dye that is used as a nucleic acid stain. In this assay, parasite replication in red blood cells is measured directly by the incorporation of SYBR green into parasite DNA. Tartrolon D/E concentrations ranging from 0.001 to 10,000 nM were tested on infected cells and DMSO (vehicle) was run in parallel as a negative control.

Another assay deals with Sarcocystis neurona. As to the kind of experiment: S. neurona luciferase proliferation assay in bovine turbinate cells. The class given is cell-based. Conditions: BT cells, 96 hours. The method, then: Sarcocystis neurona: Bovine turbinate cells (BT cells, ATCC CRL-1390, American Type Culture Collection, Manassas, Va.) were seeded into 96-well plates and infected with S. neurona merozoites that had been engineered to express green fluorescent protein and firefly luciferase (2×10^4/well). Dilutions of tartrolon D2 or DMSO were added to the infected cells and the plates incubated for 96 hours (37° C., 5% CO2). After 96 hours, parasite proliferation was quantified and the data analyzed as described with T. gondii ME49. The assay was conducted once and all samples were run in triplicate.

A further assay deals with Plasmodium berghei. The experiment in a line: Plasmodium berghei-luciferase infection in mice, IVIS imaging. The class given is in vivo. Conditions: 8 mg/kg intraperitoneal once per day for 5 days, imaged seven days after infection. The method, then: Mice were infected with Plasmodium berghei expressing luciferase. 48 hours post infection mice were treated with tartrolon D/E (specifically, D2) initially solubilized in 2% methylcellulose and 0.5% Tween80 by intraperitoneal injection for 5 days, once per day. Control mice were treated with vehicle alone. Seven days after infection, mice were given luciferase substrate (150 mg/kg D-luciferin Potassium salt in PBS (Goldbio)) and imaged in an IVIS Lumina II to quantify level of infection.

The next assay relates to C. parvum. The experiment in a line: Neonatal mouse C. parvum infection, quantitative PCR of intestinal parasites. The class given is in vivo, Cryptosporidium parvum. Conditions: neonatal mice, qPCR. The procedure:
To confirm the in vivo activity against Cryptosporidium parvum, neonatal mice were infected with C. parvum (5×10^4 oocysts per mouse), and 24 hours after infection, the mice were dosed twice daily for 4 days with either 4 or 40 mg/kg of tartrolon D/E (specifically, D2) in starting concentrations. Day 5 post-infection, the mice were sacrificed, the intestines collected and total DNA extracted. Intestinal parasite numbers were quantified by quantitative PCR (qPCR) of the C. parvum HSP70 gene and extrapolation to a standard curve standard curve of known oocyst numbers (see Shahiduzzaman, et al., Vet Parasitol 167, 43-9 (2010)). At both the high and the low dose of Tartrolon D/E, nearly 100% of the parasites were eliminated from the intestine as measured by quantitative PCR.

The subject of a further assay is Theileria equi. The experiment in a line: T. equi growth in erythrocytes, hydroethidine flow cytometry. The class given is cell-based. Conditions: Erythrocyte, 72 hours, averaged from three independent experiments, read-out: EC50, proliferation of Theileria equi. The method, then:
Theileria equi: The effect of tartrolon D2 on T. equi growth in vitro was quantified using an assay that has been previously described by Hines, S. A. et al. (Parasit Vectors 8, 33 (2015)). Briefly, wells containing an erythrocyte concentration of 9% and a starting percentage parasitized erythrocyte (ppe) of 0.3% were established in 96-well plates. Parasites were cultured in the presence of tartrolon D2 or DMSO for 72 hours with a change of media and compound every 24 hours. After 72 hours, the parasites were stained with hydroethidine and enumerated by flow cytometry (FACSCaliber). Samples were run in triplicate and three independent experiments conducted. The data was analyzed and the EC50 values calculated as described above for T. gondii ME49.

Another assay deals with Toxoplasma gondii ME49. The experiment in a line: Bright-Glo luciferase assay of parasite proliferation in HFF cells. The class given is cell-based. Conditions: read-out: EC50 against T. gondii ME49; added 8 h after infection, 24 hours, 3 independent experiments. The method, then:
Human foreskin fibroblast (HFF) cells were established in 96-well plates, and then infected with ME49 parasites engineered to express green fluorescent protein and firefly luciferase (2.5 to 5×10^5/well). Eight hours after infection, dilutions of Tartrolon D1 isolated as in Example 3, Tartrolon D2 isolated as in Example 4, or vehicle (DMSO) at equivalent concentrations were added to infected cells and the plates incubated for 24 hours (37° C., 5% CO2). Proliferation of the parasites was then measured using Bright-Glo luciferase assay system (available from Promega). Samples were run in triplicate and three independent biological replicates were conducted. The log 10 [Tartrolon D] versus percent inhibition of parasite proliferation was analyzed using the four parameter variable slope analysis in Graphpad Prism.

[4] abbreviates: cell line 3D7 (Netherlands, clone of NF54).
Setting [5] is: cell line Goan Isolate (Goa, India).

Take `OC(c1cc(C(F)(F)F)nc2c(C(F)(F)F)cccc12)C1CCCCN1` (stereo not drawn) [Mefloquine]: the Drug resistance phenotype result in the assay with P. falciparum strains [1] (setting [4]) was “S”; in the assay on P. falciparum strains [1] (cell line 7G8 (Brazil)), “S”; with P. falciparum strains [1] (cell line D6 (Sierra Leone)) it was “S”; in the assay with P. falciparum strains [1] (cell line Dd2 (SE Asia)), “R”; in the assay on P. falciparum strains [1] (setting [5]), “S”; in the assay on P. falciparum strains [1] (cell line HB3 (Honduras)), “S”. Besides, the Drug resistance phenotype result in the assay with P. falciparum strains [1] (cell line NF54 (Netherlands)) is recorded as “S”; with P. falciparum strains [1] (cell line TM90C2A (Thailand)) it was “R”; in the assay on P. falciparum strains [1] (cell line V1/S (Vietnam)) it was “S”.
For the compound `C[C@H]1[C@@H](O)O[C@@H]2O[C@@]3(C)CC[C@H]4[C@H](C)CC[C@@H]1[C@@]24OO3` [Dihydroartemisinin, dihydroartemisinin], the EC50 in assay [2] is about 20 pM; in the assay with P. falciparum strains [3] (Plasmodium falciparum, 3D7, Erythrocyte, parasite line 3D7, read-out: EC50), 200 pM; in the assay with P. falciparum strains [3] (Plasmodium falciparum, DD2, Erythrocyte, parasite line Dd2, read-out: EC50), 140 pM; in the assay on P. falciparum strains [3] (Plasmodium falciparum, Erythrocyte, parasite line 7G8, read-out: EC50) it was 95 pM; with P. falciparum strains [3] (Plasmodium falciparum, Erythrocyte, parasite line 2012 Indian Isolate (Goa), read-out: EC50), 210 pM; in the assay on P. falciparum strains [3] (Plasmodium falciparum, Erythrocyte, parasite line D6, read-out: EC50), 170 pM. The EC50 in the assay on P. falciparum strains [3] (Plasmodium falciparum, Erythrocyte, parasite line V1S, read-out: EC50) amounted to 84 pM; in the assay with P. falciparum strains [3] (Plasmodium falciparum, HB3, Erythrocyte, parasite line HB3, read-out: EC50), 160 pM; with P. falciparum strains [3] (Plasmodium falciparum, NF54, Erythrocyte, parasite line NF54, read-out: EC50), 150 pM; in the assay with P. falciparum strains [3] (Plasmodium falciparum, TM90C2A, Erythrocyte, parasite line TM90C2A, read-out: EC50), 91 pM; in the assay on P. falciparum strains [3] (parasite line 3D7, listed as Dihydroartemisinin (DHA), read-out: EC50), 110 pM.
In the case of `C=C[C@H]1C[N@@]2CC[C@H]1C[C@H]2[C@H](O)c1ccnc2ccc(OC)cc12` [Quinine], the Drug resistance phenotype result in the assay on P. falciparum strains [1] (setting [4]) is “S”; in the assay on P. falciparum strains [1] (cell line 7G8 (Brazil)), “R”; with P. falciparum strains [1] (cell line D6 (Sierra Leone)), “S”; in the assay with P. falciparum strains [1] (cell line Dd2 (SE Asia)), “R”; in the assay with P. falciparum strains [1] (cell line HB3 (Honduras)) it was “S”; in the assay with P. falciparum strains [1] (cell line NF54 (Netherlands)) it was “S”. Also, the Drug resistance phenotype result in the assay with P. falciparum strains [1] (cell line V1/S (Vietnam)) is given as “R”.
`C[C@@H]1C(=O)C[C@@H](O)CC/C=C/C=C\CC[C@H](C)OC(=O)C(O)[C@]2(O)O[C@@H](CC[C@H]2C)[C@H](C)C(=O)C[C@@H](O)CC/C=C/C=C\CC[C@H](C)OC(=O)C(O)[C@]2(O)O[C@H]1CC[C@H]2C` (stereo partly drawn) [Tartrolon D2, tartrolon D]: the EC50 with Babesia bovis is 16000 pM; in [2] it was about 105 pM; in the assay on Sarcocystis neurona, about 13200 pM; with Theileria equi it was about 350 pM; with Toxoplasma gondii ME49, 2700 pM. The “P. berghei infection (luminescence)” value in the assay with Plasmodium berghei was “reduced P. berghei infection”. In addition, the “parasites eliminated from the intestine” value with C. parvum (high dose 40 mg/kg twice daily for 4 days from 24 h after infection) and in the assay with C. parvum (low dose 4 mg/kg twice daily for 4 days from 24 h after infection) was about 100% throughout.
Turning to `CC1(C)N=C(N)N=C(N)N1c1ccc(Cl)cc1` [Cycloguanil], the Drug resistance phenotype result is listed as “S” with P. falciparum strains [1] (setting [4]); “R” with P. falciparum strains [1] (cell line 7G8 (Brazil)); “S” in the assay with P. falciparum strains [1] (cell line D6 (Sierra Leone)); “R” in the assay on P. falciparum strains [1] (cell line Dd2 (SE Asia)); “R” in the assay with P. falciparum strains [1] (setting [5]); “S” in the assay on P. falciparum strains [1] (cell line HB3 (Honduras)). In addition, the Drug resistance phenotype result was “S” in the assay with P. falciparum strains [1] (cell line NF54 (Netherlands)), “R” with P. falciparum strains [1] (cell line TM90C2A (Thailand)) and “R” with P. falciparum strains [1] (cell line V1/S (Vietnam)).
As for `COc1ncnc(NS(=O)(=O)c2ccc(N)cc2)c1OC` [Sulfodoxine], the Drug resistance phenotype result is given as “R” with P. falciparum strains [1] (setting [4]); “S” in the assay with P. falciparum strains [1] (cell line D6 (Sierra Leone)); “R” in the assay on P. falciparum strains [1] (cell line Dd2 (SE Asia)); “R” in the assay on P. falciparum strains [1] (setting [5]); “S” in the assay on P. falciparum strains [1] (cell line HB3 (Honduras)); “R” in the assay with P. falciparum strains [1] (cell line NF54 (Netherlands)).
As to `C[C@@H]1CCC2CC(=O)C[C@@H](O)CC/C=C/C=C\CC[C@H](C)OC(=O)[C@@H]3O[B-]45O[C@@H](C(=O)O[C@@H](C)CC/C=C\C=C\CC[C@H](O)CC(=O)CC6CC[C@@H](C)[C@]3(O6)O4)[C@@]1(O2)O5` [Tartrolon E, tartrolon E], the EC50 in the assay with P. falciparum strains [3] (strain Dd2, purified tartrolon E as starting material (FIG. 11C), read-out: EC50 against Dd2) is about 160 pM.

Source of the values: patent publication US11135231B2, “Methods and compositions for prevention and treatment of Apicomplexan infections” (Tufts Medical Center, Inc., priority 2016, dated 2021).
